Laboratory results as given in patent US20260115162A1, “COMPOSITION OR ASSOCIATION OF COMPOUNDS PREFERABLY FOR USE IN THE TREATMENT OF NERVOUS DISEASES IN PARTICULAR NEURODEGENERATIVE DISEASES, METHOD FOR THE PREPARATION OF SUCH COMPOSITION OR ASSOCIATION OF COMPOUNDS AND USES THEREOF” (PHARMACEUTICA SAN MARCO S.R.L., priority 2022, published 2026).
Where two headings read alike, the source gives them in different places.

Key:
[1] = Plasma and brain levels of βBA and AKBA via os in mice (Gerbeth K et al. 2013); assay type: in vivo
Excerpt: βBA appears not to undergo blood-brain barrier. According to the data of Gerbeth K et al. 2013, brain levels of AKBA were very low, resulting 0.4 per AKBA in the brain/plasma ratio (but 0.81 according to Weber C C et al. 2006). In contrast, the § BA concentration in the brain was even higher than that found in the blood with 32% increase (See Table 1).

synaptophysin = assay: Synaptophysin in PFC and HIPP of mice treated with Aβ icv, Western blotting (FIG. 11); assay type: in vivo; settings: after 7 days
Method: The βCP, FE, βBA and HA4 influence on prefrontal and hippocampal synaptic plasticity was evaluated using anti-PSD-95, anti-synaptophysin, anti-CaMKII antibodies.
(§1) The Aβ1-42, obtained from Tocris (Bristol, UK), was dissolved in sterile double-distilled pyrogenic-free water, as vehicle, to obtain a final concentration 4 μM [Colaianna M et al. 2010]. Mice were anesthetized with a solution (0.85 in ml/kg, i.p.), containing ketamine (Sigma Aldrich, Milan, Italy, 100 mg/10 ml), xylazine (Sigma Aldrich, Milan, Italy, 100 mg/10 ml) and acepromazine (prequillant, ATI Azienda Terapeutica Veterinaria Srl, 10 mg/10 ml) dissolved in saline solution. […] At the time of dissection, the correct needle track was assessed. […]
(§2) The total amount of proteins was measured in homogenates by using Pierce BCA Assay (Thermo Fisher Scientific, Cleveland, OH, USA). […] After HRP-conjugated specific antibody incubation, ECL reagent (Bio-Rad Laboratories Inc., Segrate (MI), Italy) was added to the immune complex and chemiluminescence was detected by ChemiDoc MP system (Bio-Rad Laboratories Inc., Segrate (MI), Italy). Optical densities of the bands were measured using Image J software (http://rsb.info.nih.gov/ij/ accessed on 15 Mar. 2021) and normalized against bands relative to -actin (1:5,000, Abcam, Cambridge, UK).

NF-kB = NF-kB in PFC and HIPP of mice treated with Aβ icv, Western blotting (FIG. 10); assay type: in vivo; settings: after 7 days
Method: as §1, §2

[2] = healthy volunteers, via os, cited from earlier work
catG (cathepsin G) = target: T1, catG (cathepsin G) (Homo sapiens, UniProt P08311); settings: in vitro; read-out: IC50 catG (cathepsin G) inhibition; cited from earlier work
T1 sequence (P08311 21-244): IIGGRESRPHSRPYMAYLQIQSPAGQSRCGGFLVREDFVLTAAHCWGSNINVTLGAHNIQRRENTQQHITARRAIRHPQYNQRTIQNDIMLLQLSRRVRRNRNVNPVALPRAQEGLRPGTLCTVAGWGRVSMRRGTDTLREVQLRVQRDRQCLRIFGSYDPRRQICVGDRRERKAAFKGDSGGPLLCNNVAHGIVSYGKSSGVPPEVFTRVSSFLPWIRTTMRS

[3] = patients, via os; cited from earlier work

Molecule C[C@H]1[C@H](C)CC[C@]2(C)CC[C@]3(C)C(=CC[C@@H]4[C@@]5(C)CC[C@@H](O)[C@](C)(C(=O)O)[C@@H]5CC[C@]43C)[C@H]12 [βBA, β-boswellic acid] has a Δos/brain [1] of 26, a Δos/plasma [1] of 39 and a Δplasma/brain [1] of 0.68. The “increase of concentration in the brain over that in the blood” value ([1]; Table 1) was 32%, the synaptophysin tissue concentration (synaptophysin) was “remove Ap-induced alterations” and the NF-kB tissue concentration (NF-kB) was “progressive removal of the pro-inflammatory effect induced by Aβ”. For the same molecule, the “concentration in the plasma” value ([2]; fasted conditions) was 188.2 fasted ng/g o ng/ml, the “concentration in the plasma” value ([2]; hyperlipidic fed conditions) was 1,120 hyperlipidic ng/g o ng/ml and the IC50 (catG (cathepsin G)) was 800 nM. The “concentration in the plasma” value [3] was 2,236 ng/g o ng/ml.
